Laboratory results published in ChEMBL document CHEMBL1932915, “Synthesis and biological evaluation of sialic acid derivatives containing a long hydrophobic chain at the anomeric position and their C-5 linked polymers as potent influenza virus inhibitors” (Bioorg Med Chem, 2012).
pEC50, pIC50: −log10 of the molar value.

Assays:
[1] = target: Neuraminidase (Influenza A virus (A/Aichi/2/1968(H3N2)), UniProt Q75VQ4); test: Inhibition of Human influenza virus A/Aichi/2/68 (H3N2) neuraminidase using 4-MU-Neu5Ac as substrate after 30 mins by fluorimetry
Chain of Neuraminidase (Influenza A virus (A/Aichi/2/1968(H3N2)), UniProt Q75VQ4) (Q75VQ4 whole entry): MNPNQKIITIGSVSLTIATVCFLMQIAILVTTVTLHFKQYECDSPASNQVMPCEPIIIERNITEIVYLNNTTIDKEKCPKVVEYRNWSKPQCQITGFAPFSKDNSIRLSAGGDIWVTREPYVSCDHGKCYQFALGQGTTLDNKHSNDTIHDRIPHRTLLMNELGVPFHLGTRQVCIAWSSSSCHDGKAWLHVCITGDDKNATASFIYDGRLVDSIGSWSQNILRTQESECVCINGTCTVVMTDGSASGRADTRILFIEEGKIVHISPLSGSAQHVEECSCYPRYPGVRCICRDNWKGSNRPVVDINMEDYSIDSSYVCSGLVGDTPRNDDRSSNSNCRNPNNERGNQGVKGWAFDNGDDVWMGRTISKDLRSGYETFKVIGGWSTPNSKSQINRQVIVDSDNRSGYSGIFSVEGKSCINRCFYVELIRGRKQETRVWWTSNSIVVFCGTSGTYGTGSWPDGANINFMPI

[2] = target: Neuraminidase (Influenza A virus (A/Puerto Rico/8/1934(H1N1)), UniProt P03468); test: Inhibition of Human influenza virus A/PR/8/34 (H1N1) neuraminidase using 4-MU-Neu5Ac as substrate after 30 mins by fluorimetry
Chain of Neuraminidase (Influenza A virus (A/Puerto Rico/8/1934(H1N1)), UniProt P03468) (P03468 whole entry): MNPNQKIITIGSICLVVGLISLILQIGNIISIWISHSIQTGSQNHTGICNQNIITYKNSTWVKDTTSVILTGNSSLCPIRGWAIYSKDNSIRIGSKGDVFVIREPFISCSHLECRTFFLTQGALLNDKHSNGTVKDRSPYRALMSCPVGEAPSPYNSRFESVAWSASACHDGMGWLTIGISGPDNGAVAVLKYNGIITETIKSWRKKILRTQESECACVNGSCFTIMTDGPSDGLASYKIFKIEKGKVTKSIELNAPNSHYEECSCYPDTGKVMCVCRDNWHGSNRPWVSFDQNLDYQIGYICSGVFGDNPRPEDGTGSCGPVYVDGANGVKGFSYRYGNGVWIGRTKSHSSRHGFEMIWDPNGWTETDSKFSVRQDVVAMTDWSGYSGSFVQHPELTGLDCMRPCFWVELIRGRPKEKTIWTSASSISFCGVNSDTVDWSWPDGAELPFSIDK

Neuraminidase = Neuraminidase (Influenza A virus, UniProt B4URF0); test: Inhibition of Avian influenza virus A/DK/HK/313/78 (H5N3) neuraminidase using 4-MU-Neu5Ac as substrate after 30 mins by fluorimetry
Chain of Neuraminidase (B4URF0 whole entry): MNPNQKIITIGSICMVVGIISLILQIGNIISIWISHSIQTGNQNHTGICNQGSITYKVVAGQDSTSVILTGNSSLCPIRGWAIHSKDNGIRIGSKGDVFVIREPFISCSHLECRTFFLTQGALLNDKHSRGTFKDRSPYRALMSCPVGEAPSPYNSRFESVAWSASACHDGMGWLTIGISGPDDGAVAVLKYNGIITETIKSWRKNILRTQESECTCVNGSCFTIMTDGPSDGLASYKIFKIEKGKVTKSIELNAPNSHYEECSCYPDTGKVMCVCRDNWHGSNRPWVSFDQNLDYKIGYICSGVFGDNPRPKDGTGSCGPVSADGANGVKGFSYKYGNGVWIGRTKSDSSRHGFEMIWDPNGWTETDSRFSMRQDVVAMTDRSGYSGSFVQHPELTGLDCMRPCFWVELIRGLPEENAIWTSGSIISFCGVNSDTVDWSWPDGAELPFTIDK

[3] = Inhibition of Avian influenza virus A/DK/HK/313/78 (H5N3) hemagglutininin activity in chicken erythrocytes after 1 hr; assay type: cell-based

SMILES	pEC50 [1]	pEC50 [2]	pEC50 (Neuraminidase)	pIC50 [3]
C=CC(=O)N[C@H]1[C@H]([C@H](O)[C@H](O)CO)O[C@@](SCCCCCCCCCCCC)(C(=O)O)C[C@@H]1O	3.37	2.87	3.27	–
C=CC(=O)N[C@H]1[C@H]([C@H](O)[C@H](O)CO)OC(O)(C(=O)O)C[C@@H]1O (stereo not given in full)	2.97	2.61	3.22	< 3.60
C=CC(=O)NCCCCCC(=O)N[C@H]1[C@H]([C@H](O)[C@H](O)CO)O[C@@](SCCCCCCCCCCCC)(C(=O)O)C[C@@H]1O	3.08	3.13	3.99	–
